Reference: publication PMC10412636, “An analysis of interactions between three structurally diverse anthocyanidins, as well as their glucosides, and model biological membranes, albumin, and plasmid DNA” (Scientific Reports, 2023)

Experiments:
[1] = MC540 probe fluorescence intensity in RBCM liposomes; set-up: species or system human; conditions: 37 °C, positive = decrease
Protocol: (§1) Two types of liposomes were used to study interactions with biological membranes: liposomes mimicking the composition of cancer cell membranes (mimic membrane liposome—MM) and liposomes formed from lipids extracted from human blood erythrocyte membranes (red blood cell membrane liposome—RBCM). […] Both lipids, dissolved in chloroform (MM liposome) and n-decane (RBCM liposome), were evaporated under a nitrogen atmosphere, and then dried in a desiccator for 90 min under a vacuum. The obtained dry lipid film was hydrated in phosphate buffer, pH 7.4, obtaining a concentration of 0.1 mg/ml, and then vortexed for one minute until a homogeneous, milky suspension was observed. The mixture was sonicated (Sonic, Milano, Italia) for 15 min keeping the sample in a bath of ice water, thus providing a cooling temperature of 0 °C. The suspension was then processed (extrusion) through polycarbonate filters with pore diameters of 100 and 200 nm using a Lipex extruder (Evonik). Liposomes, which had been prepared according to this procedure, was used in fluorimetric studies.
(§2) To investigate these properties three fluorescent probes were used: MC540, TMA-DPH, and DPH. MC540 localizes to the outer, hydrophilic part of the membrane, within the region of the glycerol skeleton[44]. Changes in the fluorescence intensity of this probe were formulated as the relative change in intensity to the control as a function of anthocyanins concentration. The TMA-DPH and DPH probes are supposed to locate nearer to the interface and in the hydrophobic region, respectively[45]. The measurement of changes in the anisotropy of the TMA-DPH and DPH probes allowed us to reflect the mobility of the fluorescent probes in the membrane, and therefore to determine the fluidity of the bilayer[46]. Fluorescence anisotropy was calculated using the formula[47]:1 A=I‖-GI⊥/I‖+2GI⊥ where I‖ and I⊥ are the intensity of fluorescence in parallel and perpendicular directions, to the plane of polarization of the excitation wave, respectively. G is an apparatus constant that depends on the emission wavelength.
(§3) Liposomes (the concentration of lipids in the sample was 0.1 mg/ml) were incubated for 30 min with the appropriate probe (dissolved in DMF, 1 µM concentration), and then the tested anthocyanins were added (final concentration of 1 to 30 µM). The control sample consisted of liposomes and a fluorescent probe. Fluorescence was measured on a fluorimeter (Cary Eclipse, Varian, San Diego, USA) at 37 °C. The excitation wavelengths λex and emission wavelengths λem respectively: MC540—λexc = 540 nm, λem = 590 nm; DPH—λexc = 360 nm, λem = 425 nm. nm; TMA-DPH—λexc = 340 nm, λem = 430 nm.

[2] = TMA-DPH probe fluorescence anisotropy in MM liposomes; conditions: negative = increase in anisotropy
Protocol: as §1, §2, §3

[3] = biological target: human serum albumin (HSA) (Homo sapiens, UniProt P02768); experiment: Quenching of natural fluorescence of human serum albumin; format: binding; conditions: HSA […] 10^–5 M, 37 °C
Sequence of human serum albumin (HSA) (P02768 25-609): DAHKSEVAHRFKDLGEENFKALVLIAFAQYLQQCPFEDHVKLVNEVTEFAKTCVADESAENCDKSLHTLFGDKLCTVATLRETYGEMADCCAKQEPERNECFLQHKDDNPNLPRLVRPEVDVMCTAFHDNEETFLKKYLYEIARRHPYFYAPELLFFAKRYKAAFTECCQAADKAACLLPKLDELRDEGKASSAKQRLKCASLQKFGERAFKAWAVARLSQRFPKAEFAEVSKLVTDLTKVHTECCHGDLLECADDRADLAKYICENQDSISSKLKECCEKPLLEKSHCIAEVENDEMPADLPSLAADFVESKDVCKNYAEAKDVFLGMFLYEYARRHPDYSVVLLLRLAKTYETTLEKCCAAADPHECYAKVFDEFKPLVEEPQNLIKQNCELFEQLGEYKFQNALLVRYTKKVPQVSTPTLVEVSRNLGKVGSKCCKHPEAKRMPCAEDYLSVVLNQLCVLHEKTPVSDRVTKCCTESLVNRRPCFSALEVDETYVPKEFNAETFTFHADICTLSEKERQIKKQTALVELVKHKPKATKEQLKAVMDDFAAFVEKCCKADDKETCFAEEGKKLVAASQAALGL
Protocol: The phenomenon of quenching the natural fluorescence of human serum albumin (HSA) was used to investigate the potential interaction of anthocyanins with this protein. […] Anthocyanins with concentrations ranging from 1 to 30 µM were added to HSA dissolved in phosphate buffer (1.5 × 10^–5 M) and then incubated at 37 °C for 20 min. Emission spectra were performed on a fluorimeter Cary Eclipse (Varian, San Diego, USA) at 37 °C. HSA fluorescence was excited with a wavelength of λ = 280 nm, the emission was measured in the range from 286 to 460 nm, and the fluorescence intensity was read at 345 nm where the emission maximum of HSA was located.
The Stern–Volmer equation was used to thoroughly describe the quenching mechanism of natural fluorescence and to determine the bindings parameters of HSA: anthocyanin complexes:4 F0/F=1+Kqτ0Q=1+KSV[Q] where F0—fluorescence intensity in the absence of anthocyanins (control sample), F—fluorescence intensity in the presence of anthocyanins, KSV—Stern–Volmer quenching constant (KSV = Kq·τ0), [Q]—concentration of quencher (tested compound), Kq—bimolecular quenching constant, τ0—a lifetime of the fluorophore in the absence of quencher the fluorescence lifetime of a biopolymer is calculated as 5 × 10^–9 s[51].
The apparent binding constants (Kb) and the number of binding sites (n) can be calculated using the following equation:5 log(F0-F/F]=logKb+nlog[Q]
F0 and F are the fluorescence intensities before and after the addition of the quencher. From the linear plot of log (F0 − F)/F versus log [Q], the value of Kb was obtained from the intercept.

[4] = DPH fluorescence quenching, dissociation constant with RBCM liposome membrane; format: binding, human; conditions: 37 °C
Protocol: as §1
(§4) The phenomenon of quenching the fluorescence of the DPH probe by biologically active substances enabled us to evaluate the partition coefficient (Kd, dissociation constant) of anthocyanins with both MM and RBCM liposome membranes. For this purpose, changes in the fluorescence intensity of this probe were checked and the coefficient was calculated using the equation[48]:2 1/F0/F-1=Kd/[liposomes]×1/[anthocyanins]+1/liposomes where F0—fluorescence intensity in the absence of anthocyanins (control sample), F—fluorescence intensity in the presence of anthocyanins, [liposomes]—concentration of liposomes in mg/ml, [anthocyanins]—concentration of anthocyanins tested mg/ml.
as §3

[5] = MC540 probe fluorescence intensity in MM liposomes; conditions: 37 °C, positive = decrease
Protocol: as §1, §2, §3

pHbApr-1-Neo plasmid DNA = experiment: TCSPC-FCS of PicoGreen-labelled plasmid DNA with anthocyanins; format: binding
Protocol: To evaluate the biological interaction with DNA molecules the anthocyanins were initially dissolved in ETOH (1 mM). […] Mixing of such solutions with the aqueous DNA solutions used in the studies never exceeded 1% concentration ETOH (v/v) in the final solution. The DNA plasmid was labelled by PicoGreen (CPicoGreen/CDNAbp = 0.02)[52]. The pHbApr-1-Neo plasmid (10 kbp and contour length 3.4 µm) was a generous gift from the laboratory of Prof. Maciej Ugorski (Department of Biochemistry and Molecular Biology, Wrocław University of Environmental and Life Sciences Wroclaw, Poland). PicoGreen-labelled DNA samples mixed with the appropriate amount of anthocyanins were left overnight and then measured. The increasing concentration of anthocyanins in the tested samples was expressed as the ratio of the molar concentration of anthocyanins per molar concentration of DNA base pairs in a given sample (comp/bp). The 100 µl samples were measured in Ibidi 8-well chambers. Each point on the graph is a single sample (average of 10 measurements). All measurements were performed at room temperature (25 °C). Time-correlated single-photon counting fluorescence correlation spectroscopy (TCSPC-FCS) was used to study the interaction of plasmid DNA at the single molecule level with all tested anthocyanins. […] Low power of 1uW (at the back aperture of the objective) was chosen to minimize photobleaching and saturation. In the detection plane, a pinhole (50um in diameter) was used and the signal was collected by a single photon avalanche diode (SPAD, Microphoton Devices, Bolzano, Italy). Photon arrival times were stored using fast electronics (Picoharp 300, PicoQuant) in time-tagged time-resolved recording mode. Two independent times were assigned to each detected photon: (1) a time after the beginning of the measurement and (2) a time after the previous laser pulse. The FCS data analysis was done using home-built routines (DevC++, Bloodshed Software and OriginPro70, OriginLab Corporation). The TCSPC data analysis was performed using SymPhoTime software (PicoQuant). Further details of the data evaluation are given elsewhere.

[6] = DPH probe fluorescence anisotropy in RBCM liposomes; set-up: species or system human; conditions: for Changes in DPH anisotropy relative to the control: RBCM, negative = increase in anisotropy
Protocol: as §1, §2, §3

[7] = DPH probe fluorescence anisotropy in MM liposomes; conditions: for Changes in DPH anisotropy relative to the control: MM, negative = increase in anisotropy
Protocol: as §1, §2, §3

[8] = TMA-DPH probe fluorescence anisotropy in RBCM liposomes; set-up: species or system human; conditions: negative = increase in anisotropy
From the text: Two types of liposomes were used to study interactions with biological membranes: liposomes mimicking the composition of cancer cell membranes (mimic membrane liposome—MM) and liposomes formed from lipids extracted from human blood erythrocyte membranes (red blood cell membrane liposome—RBCM). […] The RBCM liposome was according to the methodology described previously[42] with minor modifications[43]. Both lipids, dissolved in chloroform (MM liposome) and n-decane (RBCM liposome), were evaporated under a nitrogen atmosphere, and then dried in a desiccator for 90 min under a vacuum. The obtained dry lipid film was hydrated in phosphate buffer, pH 7.4, obtaining a concentration of 0.1 mg/ml, and then vortexed for one minute until a homogeneous, milky suspension was observed. The mixture was sonicated (Sonic, Milano, Italia) for 15 min keeping the sample in a bath of ice water, thus providing a cooling temperature of 0 °C. The suspension was then processed (extrusion) through polycarbonate filters with pore diameters of 100 and 200 nm using a Lipex extruder (Evonik). Liposomes, which had been prepared according to this procedure, was used in fluorimetric studies.
To investigate these properties three fluorescent probes were used: MC540, TMA-DPH, and DPH. MC540 localizes to the outer, hydrophilic part of the membrane, within the region of the glycerol skeleton[44]. […] The TMA-DPH and DPH probes are supposed to locate nearer to the interface and in the hydrophobic region, respectively[45]. The measurement of changes in the anisotropy of the TMA-DPH and DPH probes allowed us to reflect the mobility of the fluorescent probes in the membrane, and therefore to determine the fluidity of the bilayer[46]. Fluorescence anisotropy was calculated using the formula[47]:1 A=I‖-GI⊥/I‖+2GI⊥ where I‖ and I⊥ are the intensity of fluorescence in parallel and perpendicular directions, to the plane of polarization of the excitation wave, respectively. G is an apparatus constant that depends on the emission wavelength.
as §3

[9] = DPH fluorescence quenching, dissociation constant with MM liposome membrane; format: binding; conditions: 37 °C
Protocol: as §1, §4, §3

[10] = 30 µM, listed as petunidin glucoside

COc1cc(-c2[o+]c3cc(O)cc(O)c3cc2OC2OC(CO)C(O)C(O)C2O)cc(O)c1O (stereo not drawn) [Pt 3-glc, Petunidin 3-O-glucoside]
Changes in MC540 fluorescence intensity relative to the control ([1]; 1 µM): 13.68±0.65% | Changes in MC540 fluorescence intensity relative to the control ([1]; 10 µM): 28.28±3.62% | Changes in MC540 fluorescence intensity relative to the control ([1]; 20 µM): 41.75±7.08% | Changes in MC540 fluorescence intensity relative to the control ([1]; 30 µM): 58.91±14.03% | Changes in MC540 fluorescence intensity relative to the control [1, 10]: 58.9 ± 14.0% | Changes in TMA-DPH anisotropy relative to the control ([2]; 1 µM): -3.47±0.16% | Changes in TMA-DPH anisotropy relative to the control ([2]; 5 µM): -2.18±0.02% | Changes in TMA-DPH anisotropy relative to the control ([2]; 10 µM): -2.04±0.07% | Changes in TMA-DPH anisotropy relative to the control ([2]; 20 µM): 0.91±0.03% | Changes in TMA-DPH anisotropy relative to the control ([2]; 30 µM): -2.20±0.06% | Stern Volmer constant KSV [3]: 5.50 ± 0.94 × 10^3 M^−1 | number of binding sites n [3]: 0.92 ± 0.04 | Kd [4]: 46.9 ± 6.8 µM | Changes in MC540 fluorescence intensity relative to the control ([5]; 1 µM): 6.95±0.35% | Changes in MC540 fluorescence intensity relative to the control ([5]; 5 µM): 10.52±0.57% | Changes in MC540 fluorescence intensity relative to the control ([5]; 10 µM): 17.35±0.69% | Changes in MC540 fluorescence intensity relative to the control ([5]; 20 µM): 31.49±1.78% | Changes in MC540 fluorescence intensity relative to the control ([5]; 30 µM): 42.63±0.74% | Changes in MC540 fluorescence intensity relative to the control [5, 10]: 42.6 ± 0.7% | decrease in the diffusion time (tD) (pHbApr-1-Neo plasmid DNA; comp/bp = 1, from about 70 ms): ~20 fold | lifetime (LT) (pHbApr-1-Neo plasmid DNA; comp/bp = 1, plasmid alone 4.25 ns): about 3.0 ns | Particle Number (PN) (pHbApr-1-Neo plasmid DNA; comp/bp = 1, plasmid alone 5): about 0.7 | diffusion time (tD) (pHbApr-1-Neo plasmid DNA; comp/bp = 1, plasmid alone about 70 ms): 3.5 ms | Changes in DPH anisotropy relative to the control ([6]; 1 µM): -7.54±0.13% | Changes in DPH anisotropy relative to the control ([6]; 5 µM): -7.10±0.35% | Changes in DPH anisotropy relative to the control ([6]; 10 µM): -7.11±0.42% | Changes in DPH anisotropy relative to the control ([6]; 20 µM): -7.30±0.53% | Changes in DPH anisotropy relative to the control ([6]; 30 µM): -7.24±0.48% | Changes in DPH anisotropy relative to the control ([7]; 1 µM): -5.67±0.28% | Changes in DPH anisotropy relative to the control ([7]; 5 µM): -9.84±0.13% | Changes in DPH anisotropy relative to the control ([7]; 10 µM): -9.71±0.15% | Changes in DPH anisotropy relative to the control ([7]; 20 µM): -7.55±0.12% | Changes in DPH anisotropy relative to the control ([7]; 30 µM): -6.11±0.03% | Changes in TMA-DPH anisotropy relative to the control ([8]; 1 µM): -2.24±0.09% | Changes in TMA-DPH anisotropy relative to the control ([8]; 5 µM): -0.99±0.03% | Changes in TMA-DPH anisotropy relative to the control ([8]; 10 µM): 1.63±0.07% | Changes in TMA-DPH anisotropy relative to the control ([8]; 20 µM): -0.47±0.02% | Changes in TMA-DPH anisotropy relative to the control ([8]; 30 µM): 3.60±0.11% | Kd [9]: 29.3 ± 5.43 µM

COc1cc(-c2[o+]c3cc(O)cc(O)c3cc2O)cc(O)c1O [Pt, Petunidin]
Changes in MC540 fluorescence intensity relative to the control ([1]; 1 µM): 16.68±0.58% | Changes in MC540 fluorescence intensity relative to the control ([1]; 5 µM): 32.60±0.15% | Changes in MC540 fluorescence intensity relative to the control ([1]; 10 µM): 43.35±1.60% | Changes in MC540 fluorescence intensity relative to the control ([1]; 20 µM): 55.02±1.41% | Changes in MC540 fluorescence intensity relative to the control ([1]; 30 µM): 61.93±1.58% | Changes in MC540 fluorescence intensity relative to the control ([1]; 30 µM, listed as petunidin): 61.9 ± 1.6% | Changes in TMA-DPH anisotropy relative to the control ([2]; 1 µM): -5.05±0.11% | Changes in TMA-DPH anisotropy relative to the control ([2]; 5 µM): -4.34±0.09% | Changes in TMA-DPH anisotropy relative to the control ([2]; 10 µM): -2.97±0.04% | Changes in TMA-DPH anisotropy relative to the control ([2]; 20 µM): -5.53±0.11% | Changes in TMA-DPH anisotropy relative to the control ([2]; 30 µM): -5.92±0.33% | Stern Volmer constant KSV [3]: 25.99 ± 1.77 × 10^3 M^−1 | number of binding sites n [3]: 1.03 ± 0.03 | Kd [4]: 15.3 ± 4.01 µM | Changes in MC540 fluorescence intensity relative to the control ([5]; 1 µM): 17.63±1.11% | Changes in MC540 fluorescence intensity relative to the control ([5]; 5 µM): 36.62±1.63% | Changes in MC540 fluorescence intensity relative to the control ([5]; 10 µM): 50.22±5.62% | Changes in MC540 fluorescence intensity relative to the control ([5]; 20 µM): 64.46±7.12% | Changes in MC540 fluorescence intensity relative to the control ([5]; 30 µM): 72.51±3.32% | Changes in MC540 fluorescence intensity relative to the control ([5]; 30 µM, listed as petunidin): 72.5 ± 3.3% | lifetime (LT) (pHbApr-1-Neo plasmid DNA; comp/bp from 0 to 5, continuous decrease from 4.25 ns): 2.3 ns | Particle Number (PN) (pHbApr-1-Neo plasmid DNA; comp/bp from 0 to 5, continuous decrease from 5.0): about 0 | changes in plasmid tD, lower compared to those obtained for Pt 3-glc (pHbApr-1-Neo plasmid DNA; comp/bp up to 0.8): ~3.5 fold | decrease in the diffusion time (tD) (pHbApr-1-Neo plasmid DNA; tested range of comp/bp from 0 to 5): 3.5 fold | highest percentage of an increase in DPH anisotropy relative to the control ([6]; RBCM liposome, 20 µM): 10.5 ± 0.7% | Changes in DPH anisotropy relative to the control ([6]; 1 µM): -9.91±0.36% | Changes in DPH anisotropy relative to the control ([6]; 5 µM): -8.46±0.42% | Changes in DPH anisotropy relative to the control ([6]; 10 µM): -10.18±0.39% | Changes in DPH anisotropy relative to the control ([6]; 20 µM): -10.51±0.67% | Changes in DPH anisotropy relative to the control ([6]; 30 µM): -9.21±0.62% | highest percentage of an increase in DPH anisotropy relative to the control ([7]; MM liposome, 20 µM): 17.6 ± 0.4% | Changes in DPH anisotropy relative to the control ([7]; 1 µM): -13.00±0.31% | Changes in DPH anisotropy relative to the control ([7]; 5 µM): -15.66±0.33% | Changes in DPH anisotropy relative to the control ([7]; 10 µM): -17.48±0.09% | Changes in DPH anisotropy relative to the control ([7]; 20 µM): -17.59±0.36% | Changes in DPH anisotropy relative to the control ([7]; 30 µM): -14.74±0.10% | Changes in TMA-DPH anisotropy relative to the control ([8]; 1 µM): -4.68±0.23% | Changes in TMA-DPH anisotropy relative to the control ([8]; 5 µM): -0.95±0.03% | Changes in TMA-DPH anisotropy relative to the control ([8]; 10 µM): -1.05±0.03% | Changes in TMA-DPH anisotropy relative to the control ([8]; 20 µM): 1.13±0.07% | Changes in TMA-DPH anisotropy relative to the control ([8]; 30 µM): 0.70±0.02% | Kd [9]: 10.4 ± 2.45 µM
